Measurements as given in patent EP1397353B1, “2-(2,6-DISUBSTITUTED PHENYL)-4-ARYL-5-ALKYL-1,3-OXAZOLINE COMPOUNDS USEFUL AS INSECTICIDES AND ACARICIDES” (Dow AgroSciences LLC, priority 2001, dated 2003).

Assays:
Type in all cases: in vivo
[1] = system: cabbage looper (Trichoplusia ni); assay: Insecticidal test for cabbage looper (leaf-dip, cabbage leaf discs); settings: dipped cabbage leaf discs, 2nd instar larvae, 5 days, rating of % Control; for pest or weed control at 400 ppm: Trichoplusia ni, foliar, 120 h, read-out: CL, activity at 400 ppm against cabbage looper
Method: (§1) Insecticidal test for tobacco budworm (Heliothis virescens), beet armyworm (Spodoptera exigua), and cabbage looper (Trichoplusia ni).
(§2) To prepare test solution, the test compound was formulated at 400 ppm in 7.5 mL of 2 acetone: 1 tap water. 250 µL of the test solution was pipetted upon the surface of 8 mL of lepidopteran diet (modified Shorey) contained in each of five one-ounce plastic cups (one cup = 1 replication). […] After airdrying, the treated leaf discs were placed individually into one-ounce plastic cups. Each dried, treated cotton cotyledon disc was infested with a 2nd instar tobacco budworm larva, and each cabbage leaf disc was infested with a 2nd instar cabbage looper larva. Cups containing the treated substrates and larvae were capped and then held in a growth chamber at 25 °C, 50-55% RH, and 14 hr light: 10 hr dark for 5 days.

[2] = system: cotton aphid (Aphis gossypii); assay: Insecticidal test for cotton aphid (spray on infested squash cotyledons); settings: 50 ppm spray, all life stages, 3 days, rating of % Control
Method: Insecticidal test for cotton aphid (Aphis gossypii)
To prepare spray solutions, 1 mg of each test compound was dissolved into 1 mL of a 90:10 acetone:ethanol solvent. This 1 mL of chemical solution was added to 19 mL of water containing 0.05% Tween 20 surfactant to produce a 50 ppm spray solution.
Squash cotyledons were infested with cotton aphid (all life stages)16-20 hours prior to application of spray solution. The solution was sprayed on both sides of each infested squash cotyledon (0.5 mL x 2 each side) with a sweeping action until runoff. The plants were allowed to air dry and held for 3 days in a controlled room at 26 °C and 40% RH after which time the test was graded. Grading was by actual count using a dissecting microscope and comparison of test counts to the untreated check.

[3] = system: two-spotted spider mite (Tetranychus urticae); assay: Insecticidal test for two-spotted spider mite, ovicide method; settings: for pest or weed control: Tetranychus urticae, read-out: SM, activity against two-spotted spider mite
Method: Insecticidal test for two-spotted spider mite (Tetranychus urticae)
Ten adult female two-spotted spider mites were placed on eight 2.2 cm leaf discs of cotton leaf, allowed to oviposit over 24 hours, and thereafter removed. […] Discs were placed on an agar substrate and held at 24 °C and 90% RH for 6 days.

[4] = system: beet armyworm (Spodoptera exigua); assay: Insecticidal test for beet armyworm (treated lepidopteran diet); settings: 2nd instar larvae, 5 days, rating of % Control; for pest or weed control at 400 ppm: Spodoptera exigua, 120 h, read-out: BAW, activity at 400 ppm against beet armyworm
Method: as §1, §2

[5] = system: tobacco budworm (Heliothis virescens); assay: Insecticidal test for tobacco budworm (leaf-dip, cotton cotyledon discs); settings: dipped cotton cotyledon discs, 2nd instar larvae, 5 days, rating of % Control; for pest or weed control at 400 ppm: Heliothis virescens, 120 h, read-out: TBW, activity at 400 ppm against tobacco budworm
Method: as §1, §2

[6] = system: Sweetpotato Whitefly (Bemisia tabacia); assay: Insecticidal test for sweetpotato whitefly (spray on cotton plants); settings: 200 ppm spray, large nymphs counted after 13 days, rating of % Control; for pest or weed control at 200 ppm: Bemisia, 312 h, read-out: WF, activity at 200 ppm against whitefly
Method: Insecticidal test for Sweetpotato Whitefly (Bemisia tabacia)
Four mg of each test compound were dissolved by adding 4 mL of a 90:10 acetone:ethanol solvent mixture to the vial containing the sample compound. This solution was added to 16 mL of water containing 0.05% Tween 20 surfactant to produce 20 mL of a 200 ppm spray solution.
Five-week-old cotton plants reared in a greenhouse were stripped of all foliage except for the two uppermost true leaves that were greater than 5 cm in diameter. These plants were then placed into a laboratory colony of whiteflies for two days for oviposition by the colony females. All whiteflies were then removed from the test plants with pressurized air. The spray solution was then applied to the test plants with a hand-held syringe fitted with hollow cone nozzle. One mL spray solution was applied to each leaf top and bottom for a total of 4 mL per plant. Four replications of each test compound utilized a total of 16 mL spray solution. Plants were air dried and then placed in a holding chamber (28 °C and 60% RH) for 13 days. Compound efficacy was evaluated by counting, under an illuminated magnifying glass, the number of large nymphs (3rd-4th instar) per leaf
Percent control based on reduction of large nymphs of a test compound compared to solution-only (no test compound) sprayed plants is reported in Table 1-8.

[7] = foliar, 144 h, ovicide method, cotton leaf discs, 6 days, rating of % Control
[8] = ovicide method, cotton leaf discs, 6 days, rating of % Control

SMILES | pest or weed control at 400 ppm [1] [%] | CA, activity at 50 ppm against cotton aphid [2] | pest or weed control [3, 7] [%] | pest or weed control at 400 ppm [4] [%] | pest or weed control at 400 ppm [5] [%] | further results
C[C@@H]1OC(c2c(F)cccc2Cl)=N[C@@H]1c1ccc(-c2ccc(C(F)(F)F)cc2)cc1 (mixture of isomers) [Compound 4, (4R,5S)- and (4S,5R)-2-(2-chloro-6-fluorophenyl)-5-methyl-4-[4'-(trifluoromethyl)-1,1'-biphenyl-4-yl]-4,5-dihydro-1,3-oxazole] | 90 to 100 | A (90-100) | 90 to 100 | 90 to 100 | 90 to 100 | 
CC(C)c1ccc(-c2ccc([C@@H]3N=C(c4c(F)cccc4F)O[C@@H]3C)cc2)cc1 (mixture of isomers) [Compound 7, (4S,5R)- and (4R,5S)-2-(2,6-difluorophenyl)-4-(4'-isopropyl-1,1'-biphenyl-4-yl)-5-methyl-4,5-dihydro-1,3-oxazole] | 90 to 100 |  | 60 to 69 | 90 to 100 | 90 to 100 | pest or weed control at 200 ppm [6]: 90 to 100%
C[C@H]1OC(c2c(F)cccc2F)=N[C@@H]1c1ccc(I)cc1 (mixture of isomers) [Compound 22, (4R, 5R)- and (4S,5S)-4-(4-iodophenyl)-2-(2,6-difluorophenyl)-5-methyl-4,5-dihydro-1,3-oxazole] | < 50 | A (90-100) | 90 to 100 | 90 to 100 |  | 
C[C@H]1OC(c2c(F)cccc2F)=N[C@@H]1c1ccc(Br)cc1 (mixture of isomers) [Compound 24, (4R,5R)- and (4S,5S)-4-(4-bromophenyl)-2-(2,6-difluorophenyl)-5-methyl-4,5-dihydro-1,3-oxazole] | < 50 | A (90-100) | 90 to 100 |  | < 50 | 
C[C@H]1OC(c2c(F)cccc2F)=N[C@@H]1c1ccc(-c2ccc(OC(F)(F)F)cc2)cc1 (mixture of isomers) [Compound 27, (4R,5R)- and (4S,5S)-2-(2,6-difluorophenyl)-4-(4'-trifluoromethoxy-1,1'-biphenyl-4-yl)-5-methyl-4,5-dihydro-1,3-oxazole] | 90 to 100 | E (50-59) | 90 to 100 | 90 to 100 | 80 to 89 | 
C[C@@H]1OC(c2c(F)cccc2F)=N[C@H]1c1ccc(-c2ccc(C(F)(F)F)cc2F)cc1 (mixture of isomers) [Compound 32, (4S,5S)- and (4R,5R)-2-(2,6-difluorophenyl)-4-[2'-fluoro-4'-(trifluoromethyl)-1,1'-biphenyl-4-yl]-5-methyl-4,5-dihydro-1,3-oxazole] | 90 to 100 |  | 70 to 79 | 90 to 100 | 90 to 100 | pest or weed control at 200 ppm [6]: < 50%
Cc1cc(Br)ccc1[C@H]1N=C(c2c(F)cccc2F)O[C@H]1C (mixture of isomers) [Compound 38, (4R,5S)- and (4S,5R)-4-(4-bromo-2-methylphenyl)-2-(2,6-difluorophenyl)-5-methyl-4,5-dihydro-1,3-oxazole] |  |  | 60 to 69 |  |  | pest or weed control at 200 ppm [6]: < 50%
CCOc1ccc(-c2ccc([C@H]3N=C(c4c(F)cccc4F)O[C@H]3C)c(C)c2)cc1 (mixture of isomers) [Compound 41, (4R,5S)- and (4S,5R)-2-(2,6-difluorophenyl)-4-(4'-ethoxy-3-methyl-1,1'-biphenyl-4-yl)-5-methyl-4,5-dihydro-1,3-oxazole] | 90 to 100 |  | 60 to 69 | 90 to 100 | 90 to 100 | 
Cc1cc(-c2ccc(C(F)(F)F)cc2)ccc1[C@@H]1N=C(c2c(F)cccc2F)O[C@H]1C (mixture of isomers) [Compound 43, (4S,5S) - and (4R,5R)-2-(2,6-difluorophenyl)-5-methyl-4-[3-methyl-4'-(trifluoromethyl)-1,1'-biphenyl-4-yl]-4,5-dihydro-1,3-oxazole] | 90 to 100 |  |  | 90 to 100 | 90 to 100 | pest or weed control at 200 ppm [6]: < 50%
CCOc1ccc(-c2ccc([C@@H]3N=C(c4c(F)cccc4F)O[C@H]3C)c(C)c2)cc1 (mixture of isomers) [Compound 45, (4S,5S)- and (4R,5R)-2-(2,6-difluorophenyl)-4-(4'-ethoxy-3-methyl-1,1'-biphenyl-4-yl)-5-methyl-4,5-dihydro-1,3-oxazole] | 90 to 100 |  | < 50 | 90 to 100 | 90 to 100 | 
C[C@@H]1OC(c2c(F)cccc2F)=N[C@@H]1c1ccc(I)cc1 (racemic) [Compound 1, (4R,5S)- and (4S,5R)-4-(4-iodorphenyl)-2-(2,6-difluorophenyl)-5-methyl-4,5-dihydro-1,3-oxazole] |  | A (90-100) |  |  |  | SM, activity at 2.5 ppm against two-spotted spider mite ([3]; foliar, 144 h): A (90-100)
C[C@H]1OC(c2c(F)cccc2F)=N[C@H]1c1ccc(-c2ccc(OC(F)(F)F)cc2)cc1 (stereo in doubt) [Compound 49, (4S,5R)-2-(2,6-difluorophenyl)-5-methyl-4-[4'-(trifluoromethoxy)-1,1'-biphenyl-4-yl]-4,5-dihydro-1,3-oxazole] |  |  |  |  |  | CL, activity at 400 ppm against cabbage looper [1]: A (90-100); SM, activity at 2.5 ppm against two-spotted spider mite [3, 8]: A (90-100); BAW, activity at 400 ppm against beet armyworm [4]: A (90-100); WF, activity at 200 ppm against whitefly [6]: B (80-89)
C[C@@H]1OC(c2c(F)cccc2F)=N[C@@H]1c1ccc(-c2ccc(OC(F)(F)F)cc2)cc1 (stereo in doubt) [Compound 51, (4R,5S)-2-(2,6-difluorophenyl)-5-methyl-4-[4'-(trifluoromethoxy)-1,1'-biphenyl-4-yl]-4,5-dihydro-1,3-oxazole] | 90 to 100 | F (less than 50) | 90 to 100 | 90 to 100 | 80 to 89 | 
C[C@@H]1OC(c2c(F)cccc2F)=N[C@H]1c1ccc(Br)cc1 [Compound 46, (4S,5S)-4-(4-bromophenyl)-2-(2,6-difluorophenyl)-5-methyl-4,5 dihydro-1,3-oxazole] |  | A (90-100) | 90 to 100 |  |  | 
C[C@H]1OC(c2c(F)cccc2F)=N[C@@H]1c1ccc(-c2ccc(OC(F)(F)F)cc2)cc1 [Compound 53, (4R,5R)-2-(2,6-difluorophenyl)-5-methyl-4-[4'-(trifluoromethoxy)-1,1'-biphenyl-4-yl]-4,5-dihydro-1,3-oxazole] |  | F (less than 50) |  |  |  | CL, activity at 400 ppm against cabbage looper [1]: A (90-100); SM, activity at 2.5 ppm against two-spotted spider mite [3, 8]: A (90-100); BAW, activity at 400 ppm against beet armyworm [4]: A (90-100); TBW, activity at 400 ppm against tobacco budworm [5]: B (80-89)
